Literature values, collected in patent US9445901B2, “Prosthesis with sustained release analgesic” (priority 2003, dated 2016).
Structures can show the parent of a compound that is named as a salt.

Details: man, after injection for caudal, epidural or peripheral nerve block

SMILES: CCCCN1CCCCC1C(=O)Nc1c(C)cccc1C (centres unmarked) [Marcaine, bupivacaine hydrochloride]
- decline of blood levels after the peak: decline to insignificant levels during the next three to six hours
- time to peak levels of bupivacaine in the blood: 30 to 45 min
